Source: US6403639B1, “2,3-dihydrobenzofuran derivatives” (Chugai Seiyaku Kabushiki Kaisha, priority 1997, dated 2002)
Where two headings read alike, the source gives them in different places.

Key:
[1] = system: porcine kidney-derived LLC-PK1 cells; assay: Protective effect against cell injury of porcine kidney-derived LLC-PK1 cells (2), oxidized LDL-induced LDH leakage; assay type: cell-based
Procedure: The oxidized LDL was prepared by placing 1 mg/ml of rabbit LDL in PBS (−) in the presence of 10 μM CuSO4 at 37° C. for 24 hours. Cell cultures were prepared by inoculating 1.25×10^4 cells/250 μl/well on a 48-well plate using M199 medium containing 3% FBS. Test compounds were dissolved or suspended in ethanol and added at a ratio of 1.25 μl/well 16 hours before or immediately before addition of the oxidized LDL to a concentration of 0.1, 1 or 10 μM in each well. The oxidized LDL was diluted twice with physiological saline and then added to cells at 62.5 μl/well to a concentration of 100 μg/ml and the cells were incubated for 6 hours after addition of the oxidized LDL. After the incubation, 162.5 μl of the culture medium was collected from each of the wells and measured for the lactate dehydrogenase (LDH) activity (Lactate Dehydrogenase (LD-L): SIGNA DIAGNOSTICS) which has leaked into the culture medium.
(§1) The cytoprotective effect was expressed as a % cytoprotection where the effect in wells containing the oxidized LDL but without any test compound is 0% and the effect in wells containing physiological saline in place of the oxidized LDL is 100%.
For the purpose of evaluating in vitro cytoprotective effect of the compounds of the present invention, protective effect against cell injury of porcine kidney-derived LLC-PK1 cells (ATCC-CRL-13921) induced by oxidized low-density lipoprotein (oxidized LDL) was examined in the same manner as in Test example 1.
Preparation of oxidized LDL and conditions for cell culture and addition of test compounds were the same as those in Test example 1, except that the oxidized LDL was not diluted with physiological saline and added to cells at 25 μl/well to a concentration of 91 μg/ml and the cells were incubated for 6 hours after addition of oxidized LDL. After the incubation, 150 μl of the culture medium was collected from each of the wells and measured for the lactate dehydrogenase (LDH) activity (Lactate Dehydrogenase (LD-L): SIGMA DIAGNOSTICS) which has leaked in the culture medium.

[2] = system: cultured mesangial cells; assay: Protective effect against cell injury of cultured mesangial cells, oxidized LDL-induced LDH leakage; assay type: cell-based, rats
Procedure: For the purpose of evaluating in vitro cytoprotective effect of the compounds of the present invention, protective effect against cell injury of cultured mesangial cells induced by oxidized low-density lipoprotein (LDL) was examined. The cells used were subcultures after 4 to 6 passages of the primary cultures of mesangial cells prepared from kidney of 4-week-old SD-strain male rats (Nippon Charles River Corp.).
The oxidized LDL was prepared by placing 1 mg/ml of rabbit LDL in PBS (−) in the presence of 10 μM CuSO4 at 37° C. for 24 hours. Cell cultures were prepared by inoculating 2.5×10^4 cells/250 μl/well on a 48-well plate using RPMI1640 medium containing 20% FBS. Immediately before addition of test compounds, the medium was replaced with RPMI1640 free from FBS. Test compounds were dissolved or suspended in ethanol and added at 1.25 μl/well 16 hours before or immediately before addition of the oxidized LDL to a concentration of 1, 3 or 10 μM in each well. Unlike Test example 1, the oxidized LDL was not diluted with physiological saline and added to cells at 25 μl/well to a concentration of 91 μg/ml and the cells were incubated for 8 hours after addition of the oxidized LDL. After the incubation, 150 μl of the culture medium was collected from each of the wells and measured for the lactate dehydrogenase activity (Lactate Dehydrogenase (LD-L): SIGMA DIAGNOSTICS) which has leaked in the culture medium.
as §1

[3] = Sus scrofa, LLC-PK1; 0.1 μM; test compounds added 16 hours before addition of oxidized LDL; oxidized LDL 91 μg/ml, 6 hours; read-out: % cytoprotection 1)
[4] = Sus scrofa, LLC-PK1; 0.1 μM; test compounds added immediately before addition of oxidized LDL; oxidized LDL 91 μg/ml, 6 hours; read-out: % cytoprotection 2)
[5] = Sus scrofa, LLC-PK1; 1 μM; test compounds added 16 hours before addition of oxidized LDL; oxidized LDL 91 μg/ml, 6 hours; read-out: % cytoprotection 1)
[6] = Sus scrofa, LLC-PK1; 1 μM; test compounds added immediately before addition of oxidized LDL; oxidized LDL 91 μg/ml, 6 hours; read-out: % cytoprotection 2)
[7] = Sus scrofa, LLC-PK1; 10 μM; test compounds added 16 hours before addition of oxidized LDL; oxidized LDL 91 μg/ml, 6 hours; read-out: % cytoprotection 1)
[8] = Sus scrofa, LLC-PK1; 10 μM; test compounds added immediately before addition of oxidized LDL; oxidized LDL 91 μg/ml, 6 hours; read-out: % cytoprotection 2)
[9] = Rattus norvegicus, Mesangial cell; 1 μM; test compounds added 16 hours before addition of oxidized LDL; oxidized LDL 91 μg/ml, 8 hours; read-out: % cytoprotection 1)
[10] = Rattus norvegicus, Mesangial cell; 1 μM; test compounds added immediately before addition of oxidized LDL; oxidized LDL 91 μg/ml, 8 hours; read-out: % cytoprotection 2)
[11] = Rattus norvegicus, Mesangial cell; 3 μM; test compounds added 16 hours before addition of oxidized LDL; oxidized LDL 91 μg/ml, 8 hours; read-out: % cytoprotection 1)
[12] = Rattus norvegicus, Mesangial cell; 3 μM; test compounds added immediately before addition of oxidized LDL; oxidized LDL 91 μg/ml, 8 hours; read-out: % cytoprotection 2)

Row | SMILES | inhibition at 0.1 µM [1, 3] [%] | inhibition at 0.1 µM [1, 4] [%] | inhibition at 1 µM [1, 5] [%] | inhibition at 1 µM [1, 6] [%] | inhibition at 10 µM [1, 7] [%] | inhibition at 10 µM [1, 8] [%] | inhibition at 1 µM [2, 9] [%] | inhibition at 1 µM [2, 10] [%] | inhibition at 3 µM [2, 11] [%] | inhibition at 3 µM [2, 12] [%]
1 | C=CC(C)c1c(O)c(C(C)(C)C)cc2c1CC1(CCCCCC1)O2 (centres unmarked) [Example 12, 6-t-Butyl-5-hydroxy-4-(1-methyl-2-propenyl)-2,3-dihydrobenzofuran-2-spiro-1′-cycloheptane] | -15.5 | -8.4 | 77.9 | 79.4 | 102 | 102 | 11.8 ± 2.6 | 17.4 ± 4 | 37.9 ± 8.3 | 42.8 ± 3.7
2 | CC(C)Cc1c(O)c(C(C)(C)C)cc2c1CC1(CCCCCC1)O2 [Example 11, 6-t-Butyl-5-hydroxy-4-(2-methylpropyl)-2,3-dihydrobenzofuran-2-spiro-1′-cycloheptane] | -2.7 | -20.4 | 53.4 | 88.7 | 102 | 103 | -3.5 ± 9.1 | 4.8 ± 5.1 | 13.8 ± 7.8 | 41.3 ± 1
3 | CC(C)c1cc2c(c(C(C)C)c1O)CC(C)(C)O2 [Example 18, 5-Hydroxy-2,2-dimethyl-4,6-diisopropyl-2,3-dihydrobenzofuran] | 12.1 | -1.9 | 100 | 99.7 | 100 | 101 | – | – | – | –
4 | CC(C)c1c(O)c(C(C)(C)C)cc2c1CC(C)(C)O2 [Example 20-(1), 6-t-Butyl-5-hydroxy-2,2-dimethyl-4-isopropyl-2,3-dihydrobenzofuran] | -4.8 | -24 | 100 | 100 | 104 | 100 | – | – | – | –
5 | CC1Cc2cc(O)c(C(C)(C)C)cc2O1 (centres unmarked) [Example 16, 6-t-Butyl-5-hydroxy-2-methyl-2,3-dihydrobenzofuran] | 12.7 | 7.6 | 99.7 | 90.8 | 103 | 103 | 50.6 ± 5.9 | 18.7 ± 1.3 | 45.3 ± 9.4 | 28.3 ± 6.2
6 | CC(C)(C)c1cc2c(cc1O)CCO2 [Example 15, 6-t-Butyl-5-hydroxy-2,3-dihydrobenzofuran] | – | – | – | – | – | – | -4 ± 3.5 | -14.6 ± 3.3 | 33.6 ± 11.5 | 5.4 ± 5.1
7 | CCc1c(O)c(C(C)(C)C)cc2c1CC1(CCCCCC1)O2 [Example 14-(2), 6-t-Butyl-4-ethyl-5-hydroxy-2,3-dihydrobenzofuran-2-spiro-1′-cycloheptane] | -14.3 | -13.9 | 103 | 99.4 | 104 | 105 | 6.6 ± 8.4 | 23.1 ± 1.2 | 52.7 ± 14.3 | 45.6 ± 1.8
8 | CC(C)c1cc2c(c(C(C)(C)C)c1O)CC(C)(C)O2 [Example 20-(2), 4-t-Butyl-5-hydroxy-2,2-dimethyl-6-isopropyl-2,3-dihydrobenzofuran] | 95.3 | 61.9 | 98.1 | 97.8 | 97.3 | 99.1 | – | – | – | –
9 | Cc1c(O)c(C(C)(C)C)cc2c1CC(C)(C)O2 [Example 19, 6-t-Butyl-5-hydroxy-2,2,4-trimethyl-2,3-dihydrobenzofuran] | 31.1 | 13.2 | 104 | 102 | 102 | 102 | – | – | – | –
10 | CCC1(CC)Cc2c(cc(C(C)C)c(O)c2C(C)C)O1 [Example 17, 2,2-Diethyl-5-hydroxy-4,6-diisopropyl-2,3-dihydrobenzofuran] | 40.5 | 22.1 | 99.9 | 101 | 99.9 | 98.4 | – | – | – | –
